# Laboratory results taken from patent US10842797B2, “Nutraceutical co-crystal compositions” (UNIVERSITY OF SOUTH FLORIDA, priority 2007, dated 2020).
# Method: Solubility profiles for co-crystals were determined by UV-vis spectroscopy (Perkin Elmer-Lambda 25 UV-vis spectrometer, 400 nm).
# The solubility of KP10 in 1:1 ethanol/water (V/V %) was determined by UV-vis spectroscopy, with a wavelength of 360 nm.
# The solubility of KP15 in 1:1 ethanol/water (V/V %) was determined by UV-vis spectroscopy, with a wavelength of 300 nm.
increase in the solubility of hesperetin in the co-crystal when compared to pure hesperetin,increase in the solubility of quercetin in the co-crystal when compared to quercetin dehydrate,Substance
approximately 12 fold,–,Co-Crystal of Hesperetin and Iso-Nicotinamide [KP15]
–,~6 fold,Co-Crystal of Quercetin and Iso-Nicotinamide [KP10]
